Test results: PubChem BioAssay AID1919007 (Molecular Pharmacology Branch, DTP, NCI, 2023)
Where “and” joins values, the source holds several entries; their conditions need not be identical. Equal entries are not always repeated.

System: A498 complex spheroids with HUVEC/MSC, growth
Assay: Anticancer human tumor A498 cell line growth inhibition [AhR];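 also: seven day exposure starting three days after spheroid seeding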;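 as to viability, T/C: luminescence signal used as a surrogate for viable cells; luminescence viability scaled so 100% equals DMSO vehicle wells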
Settings: for viability, T/C: stronger effect = lower value
From the text: Multicellular complex tumor spheroid response to aryl hydrocarbon receptor antagonists in combination with a variety of drugs and investigational agents in selected tumor cell lines
The current study was undertaken to assess response to aryl hydrocarbon receptor antagonists in combination with standard-of-care drugs and investigational agents in solid tumor complex spheroid models. Complex spheroids include a stromal component modeled by human endothelial cells (HUVEC) and fibroblasts modeled by human mesenchymal stem cells (MSCs). The concentration ranges selected for each drug and investigational agent were based upon clinically achievable concentrations if the clinical Cmax of the agent was known.
Compounds. The drugs and investigational agents: BAY 2416964 (NSC825713), GNF351 (NSC835774), CH-223191 (NSC835775), CPI-455 (NSC825282), aza-TdCyd (NSC777586), decitabine (NSC127716), belinostat (NSC758774), entinostat (NSC756642), pevonedistat (NSC761192), tazemetostat (NSC777109), talazoparib (NSC765396), olaparib (NSC753686), selinexor (NSC780203), nedisertib (M3814, NSC802822), bortezomib (NSC756655), venetoclax (NSC766270), doxorubicin (NSC123127), elimusertib (BAY189344, NSC800525), ceralasertib (AZD6738, NSC777638), TAK-243 (NSC785004), alisertib (NSC759677), etoposide (NSC141540), topotecan (NSC609699), eribulin (NSC707389), gemcitabine (NSC613327), carboplatin (NSC241240), cisplatin (NSC119875), and SN-38 (NSC673596) were obtained from the National Cancer Institute (NCI) Developmental Therapeutics Program Chemical Repository (32). The FDA-approved anticancer drug set is available from the Developmental Therapeutics Program at https://dtp.cancer.gov/organization/dscb/obtaining/available plates.htm. […] The stock solutions were prepared in dimethyl sulfoxide (DMSO, Sigma-Aldrich, St. Louis, MO, cat. D2650), except for the platinum compounds which were prepared in saline (Quality Biological, Gaithersburg, MD, cat. 114-055-101), at 800-fold the tested concentration and stored at -70 degrees C prior to their use. All drugs and investigational agents were tested over a range starting from a high concentration at or near the clinical Cmax and decreasing in half-log increments. If the clinical Cmax for an agent had not been determined, the highest concentration tested was 10 microM (Table 1).
Cell Culture. All cells were maintained in an incubator at 37 degrees C and 5% CO2 with 95% humidity. The PDC lines were cultured according to standard operating procedures established by the NCI PDMR (https://pdmr.cancer.gov). Briefly, all PDCs were thawed and cultured in Matrigel-coated flasks prepared with a working solution of 1X Ham's F-12 nutrient mix, without supplementation (Invitrogen, Waltham, MA, cat. 11765054), 100 U/mL penicillin-streptomycin (Invitrogen, cat. 15140122), and 2.5% Matrigel (Corning Inc., Corning, NY, cat. 354248) for the first three passages. All PDCs were cultured in complete DMEM/F-12 media containing advanced DMEM/F-12 (Invitrogen, cat. 12634028), 4.9% defined fetal bovine serum, heat inactivated (HyClone Laboratories Inc., Logan, UT, cat. SH30070.03HI), 389 ng/mL hydrocortisone (Sigma-Aldrich, cat. H4001), 9.7 ng/mL human EGF recombinant protein (Invitrogen, cat. PHG0313), 23.4 microg/mL adenine (Sigma-Aldrich, cat. A2786), 97.3 U/mL penicillin-streptomycin (Invitrogen, cat. 15140122), 1.9 mM L-glutamine (Invitrogen, cat. 25030081), and 9.7 microM Y-27632 dihydrochloride (Tocris Bioscience, Bristol, United Kingdom, cat. 1254). The PDCs were cultured in complete DMEM/F12 media without 10 microM Y-27632 dihydrochloride for at least two passages prior to the screen. The established cell lines NCI-H1341 and […] were cultured in DMEM/F-12, HEPES (Invitrogen, cat. 11330032), 5% defined fetal bovine serum (HyClone Laboratories Inc., cat. SH30070.03), ITS premix universal culture supplement [insulin (5 microg/mL), transferrin (5 microg/mL), and selenious acid (5 ng/mL)] […]

[1] = curve of first compound, second compound 0.1 µM
[2] = curve of first compound, second compound 0.316 µM
[3] = curve of first compound, second compound 1 µM
[4] = curve of first compound, second compound 3.16 µM
[5] = curve of first compound, second compound 10 µM
[6] = second compound 0.1 µM, first compound 0.0316 µM
[7] = second compound 0.1 µM, first compound 0.1 µM
[8] = second compound 0.1 µM, first compound 0.316 µM
[9] = second compound 0.1 µM, first compound 1 µM
[10] = second compound 0.1 µM, first compound 3.16 µM
[11] = second compound 0.1 µM, first compound 10 µM
[12] = second compound 0.316 µM, first compound 0.0316 µM
[13] = second compound 0.316 µM, first compound 0.1 µM
[14] = second compound 0.316 µM, first compound 0.316 µM
[15] = second compound 0.316 µM, first compound 1 µM
[16] = second compound 0.316 µM, first compound 3.16 µM
[17] = second compound 0.316 µM, first compound 10 µM
[18] = second compound 1 µM, first compound 0.0316 µM
[19] = second compound 1 µM, first compound 0.1 µM
[20] = second compound 1 µM, first compound 0.316 µM
[21] = second compound 1 µM, first compound 1 µM
[22] = second compound 1 µM, first compound 3.16 µM
[23] = second compound 1 µM, first compound 10 µM
[24] = second compound 3.16 µM, first compound 0.0316 µM
[25] = second compound 3.16 µM, first compound 0.1 µM
[26] = second compound 3.16 µM, first compound 0.316 µM
[27] = second compound 3.16 µM, first compound 1 µM
[28] = second compound 3.16 µM, first compound 3.16 µM
[29] = second compound 3.16 µM, first compound 10 µM
[30] = second compound 10 µM, first compound 0.0316 µM
[31] = second compound 10 µM, first compound 0.1 µM
[32] = second compound 10 µM, first compound 0.316 µM
[33] = second compound 10 µM, first compound 1 µM
[34] = second compound 10 µM, first compound 3.16 µM
[35] = second compound 10 µM, first compound 10 µM

## COc1ccc([C@@H](O)c2cc(-c3ncnc4cc(N5CCOCC5)ccc34)c(F)cc2Cl)nn1 + Cc1cncc(-c2nc(NCCc3c[nH]c4ccccc34)c3ncn(C(C)C)c3n2)c1
[1]
  IC50: 477 nM
[2]
  IC50: 549 nM
[3]
  IC50: 434 nM
[4]
  IC50: < 31.6 nM
[5]
  IC50: < 31.6 nM
[6]
  viability, T/C: 89.2%
[7]
  viability, T/C: 86.9%
[8]
  viability, T/C: 59%
[9]
  viability, T/C: 30.6%
[10]
  viability, T/C: 19.1%
[11]
  viability, T/C: 10.1%
[12]
  viability, T/C: 89.5%
[13]
  viability, T/C: 85.9%
[14]
  viability, T/C: 67%
[15]
  viability, T/C: 31.1%
[16]
  viability, T/C: 17.7%
[17]
  viability, T/C: 11.8%
[18]
  viability, T/C: 80.6%
[19]
  viability, T/C: 85.1%
[20]
  viability, T/C: 57.5%
[21]
  viability, T/C: 26.6%
[22]
  viability, T/C: 17.5%
[23]
  viability, T/C: 12.4%
[24]
  viability, T/C: 45.1%
[25]
  viability, T/C: 49.3%
[26]
  viability, T/C: 39.3%
[27]
  viability, T/C: 25%
[28]
  viability, T/C: 15.4%
[29]
  viability, T/C: 11.6%
[30]
  viability, T/C: 3.91%
[31]
  viability, T/C: 4.22%
[32]
  viability, T/C: 4.26%
[33]
  viability, T/C: 3.54%
[34]
  viability, T/C: 3.86%
[35]
  viability, T/C: 8.65%

## NS(=O)(=O)OCC1CC(n2ccc3c(NC4CCc5ccccc54)ncnc32)CC1O (configuration not stated) + Cc1ccccc1N=Nc1ccc(NC(=O)c2ccnn2C)c(C)c1
[1]
  IC50: 334 nM
[2]
  IC50: 359 nM
[3]
  IC50: 316 nM
[4]
  IC50: 341 nM
[5]
  IC50: 348 nM
[6]
  viability, T/C: 87.8%
[7]
  viability, T/C: 83.8%
[8]
  viability, T/C: 49.3%
[9]
  viability, T/C: 31.3%
[10]
  viability, T/C: 26%
[11]
  viability, T/C: 20.1%
[12]
  viability, T/C: 88.5%
[13]
  viability, T/C: 83.8%
[14]
  viability, T/C: 51.2%
[15]
  viability, T/C: 31%
[16]
  viability, T/C: 25.7%
[17]
  viability, T/C: 21.3%
[18]
  viability, T/C: 86.2%
[19]
  viability, T/C: 78%
[20]
  viability, T/C: 49.2%
[21]
  viability, T/C: 30.1%
[22]
  viability, T/C: 24.2%
[23]
  viability, T/C: 21.9%
[24]
  viability, T/C: 83.5%
[25]
  viability, T/C: 77.3%
[26]
  viability, T/C: 49.6%
[27]
  viability, T/C: 33%
[28]
  viability, T/C: 25.9%
[29]
  viability, T/C: 22.7%
[30]
  viability, T/C: 78.2%
[31]
  viability, T/C: 71.7%
[32]
  viability, T/C: 50.5%
[33]
  viability, T/C: 33.9%
[34]
  viability, T/C: 25%
[35]
  viability, T/C: 23.2%

## Cn1ncnc1C1c2n[nH]c(=O)c3cc(F)cc(c23)NC1c1ccc(F)cc1 (configuration not stated) + Cc1ccccc1N=Nc1ccc(NC(=O)c2ccnn2C)c(C)c1
[1]
  IC50: > 100 nM
[2]
  IC50: > 100 nM
[3]
  IC50: > 100 nM
[4]
  IC50: > 100 nM
[5]
  IC50: > 100 nM
Second compound 0.1 µM, first compound 0.000316 µM
  viability, T/C: 102%
Second compound 0.1 µM, first compound 0.001 µM
  viability, T/C: 93.6%
Second compound 0.1 µM, first compound 0.00316 µM
  viability, T/C: 92.2%
Second compound 0.1 µM, first compound 0.01 µM
  viability, T/C: 94%
[6]
  viability, T/C: 86%
[7]
  viability, T/C: 88%
Second compound 0.316 µM, first compound 0.000316 µM
  viability, T/C: 96.3%
Second compound 0.316 µM, first compound 0.001 µM
  viability, T/C: 91.5%
Second compound 0.316 µM, first compound 0.00316 µM
  viability, T/C: 95.1%
Second compound 0.316 µM, first compound 0.01 µM
  viability, T/C: 93.3%
[12]
  viability, T/C: 90.4%
[13]
  viability, T/C: 88.2%
Second compound 1 µM, first compound 0.000316 µM
  viability, T/C: 93.5%
Second compound 1 µM, first compound 0.001 µM
  viability, T/C: 89%
Second compound 1 µM, first compound 0.00316 µM
  viability, T/C: 85.6%
Second compound 1 µM, first compound 0.01 µM
  viability, T/C: 81.2%
[18]
  viability, T/C: 81.5%
[19]
  viability, T/C: 87.3%
Second compound 3.16 µM, first compound 0.000316 µM
  viability, T/C: 83.7%
Second compound 3.16 µM, first compound 0.001 µM
  viability, T/C: 86.8%
Second compound 3.16 µM, first compound 0.00316 µM
  viability, T/C: 88.7%
Second compound 3.16 µM, first compound 0.01 µM
  viability, T/C: 84.7%
[24]
  viability, T/C: 83.2%
[25]
  viability, T/C: 73.7%
Second compound 10 µM, first compound 0.000316 µM
  viability, T/C: 82%
Second compound 10 µM, first compound 0.001 µM
  viability, T/C: 93%
Second compound 10 µM, first compound 0.00316 µM
  viability, T/C: 90.8%
Second compound 10 µM, first compound 0.01 µM
  viability, T/C: 85%
[30]
  viability, T/C: 79.6%
[31]
  viability, T/C: 81.7%

## CC[C@@]1(O)C(=O)OCc2c1cc1n(c2=O)Cc2cc3c(CN(C)C)c(O)ccc3nc2-1
Compound 0.000316 µM
  viability, T/C: 97.9% and 107% and 110%
Compound 0.001 µM
  viability, T/C: 103% and 111% and 112%
Compound 0.00316 µM
  viability, T/C: 112% and 102% (2×)
Compound 0.01 µM
  viability, T/C: 86.9% and 93.3% and 98.7%
Compound 0.0316 µM
  viability, T/C: 79.8% and 82.3% and 85.8%
Compound 0.1 µM
  viability, T/C: 73.1% and 85% and 66.5%
Curve of compound
  IC50: > 100 nM
